What all share (assay type): biochemical
One assay has as its target T1, MER (Homo sapiens, UniProt Q12866).
T1 sequence (Q12866 21-999): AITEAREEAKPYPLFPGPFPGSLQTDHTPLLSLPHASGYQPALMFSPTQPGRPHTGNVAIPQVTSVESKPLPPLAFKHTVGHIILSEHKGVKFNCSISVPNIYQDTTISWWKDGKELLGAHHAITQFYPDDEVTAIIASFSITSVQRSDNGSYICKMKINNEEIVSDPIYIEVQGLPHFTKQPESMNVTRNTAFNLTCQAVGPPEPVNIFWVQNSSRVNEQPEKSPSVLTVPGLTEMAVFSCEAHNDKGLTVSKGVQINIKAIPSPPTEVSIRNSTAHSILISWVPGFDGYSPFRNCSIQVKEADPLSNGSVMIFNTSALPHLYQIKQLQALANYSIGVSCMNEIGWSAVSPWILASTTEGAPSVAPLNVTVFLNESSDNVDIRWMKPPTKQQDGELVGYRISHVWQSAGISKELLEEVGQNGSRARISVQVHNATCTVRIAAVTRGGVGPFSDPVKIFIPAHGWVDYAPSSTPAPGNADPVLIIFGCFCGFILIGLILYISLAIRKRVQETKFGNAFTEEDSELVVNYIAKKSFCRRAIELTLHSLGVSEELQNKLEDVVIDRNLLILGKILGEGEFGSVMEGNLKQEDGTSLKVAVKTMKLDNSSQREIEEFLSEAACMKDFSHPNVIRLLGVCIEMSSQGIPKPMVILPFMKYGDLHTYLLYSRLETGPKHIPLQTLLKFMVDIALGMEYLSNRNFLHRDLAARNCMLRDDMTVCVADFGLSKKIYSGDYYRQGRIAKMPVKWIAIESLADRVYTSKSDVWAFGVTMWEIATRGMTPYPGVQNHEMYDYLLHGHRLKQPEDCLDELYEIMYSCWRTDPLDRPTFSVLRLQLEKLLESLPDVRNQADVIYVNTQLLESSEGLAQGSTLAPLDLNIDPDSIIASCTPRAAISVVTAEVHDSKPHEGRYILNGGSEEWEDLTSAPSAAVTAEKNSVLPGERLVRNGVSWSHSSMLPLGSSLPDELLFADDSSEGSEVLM
The assay can be described thus: Kinome profiling MER. The note with it: read-out: Inhibitory activity MER; for inhibition at 0.1 µM: 100 nM. On the procedure: (§1) . The kinome-wide selectivity was determined following the methods previously reported by Mohedas et al., ACS Chem Biol 2013, 8, 1291-1302 and Sanvitale et al., PLoS One 2013, 8, e62721.

A further assay has as its target CSK (Homo sapiens, UniProt P41240). Nature of the assay: Kinome profiling CSK. The note with it: read-out: Inhibitory activity CSK; for inhibition at 0.1 µM: 100 nM. On the procedure:
as §1

The target in the next assay is KDR (Homo sapiens, UniProt P35968). Nature of the assay: Kinome profiling KDR. The note with it: read-out: Inhibitory activity KDR; for inhibition at 0.1 µM: 100 nM. On the procedure:
as §1

The target in the next assay is TIE2 (Homo sapiens, UniProt Q02763). The assay can be described thus: Kinome profiling TIE2. The conditions noted are these: read-out: Inhibitory activity TIE2; for inhibition at 0.1 µM: 100 nM. On the procedure:
as §1

The target of another assay is TRKC (Homo sapiens, UniProt Q16288). Nature of the assay: Kinome profiling TRKC. The note with it: read-out: Inhibitory activity TRKC; for inhibition at 0.1 µM: 100 nM. On the procedure:
as §1

The next assay has as its target NEK7 (Homo sapiens, UniProt Q8TDX7). Nature of the assay: Kinome profiling NEK7. The note with it: read-out: Inhibitory activity NEK7; for inhibition at 0.1 µM: 100 nM. On the procedure: as §1
The target in the next assay is T2, NEK1 (Homo sapiens, UniProt Q96PY6).
T2 sequence (Q96PY6 1-1258): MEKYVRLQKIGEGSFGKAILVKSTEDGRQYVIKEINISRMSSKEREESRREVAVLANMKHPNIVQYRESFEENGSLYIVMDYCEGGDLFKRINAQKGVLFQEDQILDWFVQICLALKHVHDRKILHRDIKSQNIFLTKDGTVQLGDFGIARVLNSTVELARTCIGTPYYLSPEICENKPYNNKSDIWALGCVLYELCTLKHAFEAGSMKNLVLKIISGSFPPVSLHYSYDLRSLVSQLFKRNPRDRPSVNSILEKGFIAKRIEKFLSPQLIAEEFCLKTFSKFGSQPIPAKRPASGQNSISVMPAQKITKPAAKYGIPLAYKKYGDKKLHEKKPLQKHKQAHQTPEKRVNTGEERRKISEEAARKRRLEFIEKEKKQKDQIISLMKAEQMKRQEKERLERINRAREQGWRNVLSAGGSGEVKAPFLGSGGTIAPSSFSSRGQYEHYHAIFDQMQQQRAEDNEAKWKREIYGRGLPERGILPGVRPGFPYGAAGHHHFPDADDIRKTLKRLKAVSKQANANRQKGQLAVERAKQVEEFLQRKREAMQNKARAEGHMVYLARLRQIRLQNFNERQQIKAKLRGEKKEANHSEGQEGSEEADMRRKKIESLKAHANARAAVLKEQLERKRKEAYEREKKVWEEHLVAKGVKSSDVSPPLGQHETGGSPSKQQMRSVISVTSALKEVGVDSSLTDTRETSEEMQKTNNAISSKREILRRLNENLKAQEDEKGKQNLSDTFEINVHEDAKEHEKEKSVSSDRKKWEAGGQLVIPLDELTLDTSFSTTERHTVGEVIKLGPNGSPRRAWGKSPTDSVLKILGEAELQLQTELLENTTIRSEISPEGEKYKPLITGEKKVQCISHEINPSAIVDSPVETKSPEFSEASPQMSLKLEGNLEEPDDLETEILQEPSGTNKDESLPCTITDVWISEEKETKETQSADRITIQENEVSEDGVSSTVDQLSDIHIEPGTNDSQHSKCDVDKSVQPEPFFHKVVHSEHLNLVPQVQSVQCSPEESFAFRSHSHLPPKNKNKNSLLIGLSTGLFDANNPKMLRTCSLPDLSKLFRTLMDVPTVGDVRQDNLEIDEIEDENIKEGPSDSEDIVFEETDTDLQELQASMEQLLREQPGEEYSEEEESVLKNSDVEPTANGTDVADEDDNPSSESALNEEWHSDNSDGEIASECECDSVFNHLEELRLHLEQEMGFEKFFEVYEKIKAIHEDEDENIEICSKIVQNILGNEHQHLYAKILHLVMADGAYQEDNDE
The assay can be described thus: Kinome profiling NEK1. The conditions noted are these: read-out: Inhibitory activity NEK1; for inhibition at 0.1 µM: 100 nM. On the procedure: as §1

Chain of TIE2 (Q02763 23-1124): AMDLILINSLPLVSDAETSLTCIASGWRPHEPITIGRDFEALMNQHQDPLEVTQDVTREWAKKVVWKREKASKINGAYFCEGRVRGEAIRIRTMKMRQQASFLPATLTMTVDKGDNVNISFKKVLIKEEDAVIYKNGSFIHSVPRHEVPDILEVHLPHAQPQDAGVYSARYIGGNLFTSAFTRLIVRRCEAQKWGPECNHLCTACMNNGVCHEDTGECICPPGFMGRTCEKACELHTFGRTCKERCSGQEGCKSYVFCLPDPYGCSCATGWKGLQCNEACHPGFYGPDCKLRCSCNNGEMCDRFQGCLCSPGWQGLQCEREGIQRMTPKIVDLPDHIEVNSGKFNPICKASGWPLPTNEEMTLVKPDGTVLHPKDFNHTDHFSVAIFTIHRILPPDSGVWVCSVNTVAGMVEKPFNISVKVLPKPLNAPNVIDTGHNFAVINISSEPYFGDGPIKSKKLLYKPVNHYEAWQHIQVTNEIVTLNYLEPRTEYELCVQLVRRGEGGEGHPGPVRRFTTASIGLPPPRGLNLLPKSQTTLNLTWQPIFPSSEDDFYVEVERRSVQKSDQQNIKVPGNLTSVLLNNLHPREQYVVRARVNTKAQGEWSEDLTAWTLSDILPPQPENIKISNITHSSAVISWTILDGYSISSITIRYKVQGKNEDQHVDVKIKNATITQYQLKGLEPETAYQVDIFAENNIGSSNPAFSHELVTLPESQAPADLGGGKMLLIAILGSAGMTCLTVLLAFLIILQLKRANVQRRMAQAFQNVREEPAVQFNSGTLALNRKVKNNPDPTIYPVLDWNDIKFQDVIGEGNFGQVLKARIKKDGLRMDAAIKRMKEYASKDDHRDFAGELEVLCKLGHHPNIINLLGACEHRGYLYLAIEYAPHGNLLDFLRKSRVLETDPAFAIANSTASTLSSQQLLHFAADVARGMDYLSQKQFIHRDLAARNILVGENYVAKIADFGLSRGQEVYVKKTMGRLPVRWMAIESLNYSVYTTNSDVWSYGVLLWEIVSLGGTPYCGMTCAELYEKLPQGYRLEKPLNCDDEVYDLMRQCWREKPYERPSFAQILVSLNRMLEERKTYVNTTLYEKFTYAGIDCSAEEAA
Chain of NEK7 (Q8TDX7 whole entry): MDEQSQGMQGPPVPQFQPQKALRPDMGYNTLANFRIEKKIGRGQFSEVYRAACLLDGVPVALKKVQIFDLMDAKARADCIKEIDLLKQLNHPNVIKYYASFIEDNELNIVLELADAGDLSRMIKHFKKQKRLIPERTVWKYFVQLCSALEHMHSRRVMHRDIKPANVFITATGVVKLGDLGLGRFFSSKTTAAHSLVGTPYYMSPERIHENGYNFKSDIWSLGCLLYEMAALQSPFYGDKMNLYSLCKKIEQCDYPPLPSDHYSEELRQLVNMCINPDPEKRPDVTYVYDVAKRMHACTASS
Chain of KDR (P35968 20-1356): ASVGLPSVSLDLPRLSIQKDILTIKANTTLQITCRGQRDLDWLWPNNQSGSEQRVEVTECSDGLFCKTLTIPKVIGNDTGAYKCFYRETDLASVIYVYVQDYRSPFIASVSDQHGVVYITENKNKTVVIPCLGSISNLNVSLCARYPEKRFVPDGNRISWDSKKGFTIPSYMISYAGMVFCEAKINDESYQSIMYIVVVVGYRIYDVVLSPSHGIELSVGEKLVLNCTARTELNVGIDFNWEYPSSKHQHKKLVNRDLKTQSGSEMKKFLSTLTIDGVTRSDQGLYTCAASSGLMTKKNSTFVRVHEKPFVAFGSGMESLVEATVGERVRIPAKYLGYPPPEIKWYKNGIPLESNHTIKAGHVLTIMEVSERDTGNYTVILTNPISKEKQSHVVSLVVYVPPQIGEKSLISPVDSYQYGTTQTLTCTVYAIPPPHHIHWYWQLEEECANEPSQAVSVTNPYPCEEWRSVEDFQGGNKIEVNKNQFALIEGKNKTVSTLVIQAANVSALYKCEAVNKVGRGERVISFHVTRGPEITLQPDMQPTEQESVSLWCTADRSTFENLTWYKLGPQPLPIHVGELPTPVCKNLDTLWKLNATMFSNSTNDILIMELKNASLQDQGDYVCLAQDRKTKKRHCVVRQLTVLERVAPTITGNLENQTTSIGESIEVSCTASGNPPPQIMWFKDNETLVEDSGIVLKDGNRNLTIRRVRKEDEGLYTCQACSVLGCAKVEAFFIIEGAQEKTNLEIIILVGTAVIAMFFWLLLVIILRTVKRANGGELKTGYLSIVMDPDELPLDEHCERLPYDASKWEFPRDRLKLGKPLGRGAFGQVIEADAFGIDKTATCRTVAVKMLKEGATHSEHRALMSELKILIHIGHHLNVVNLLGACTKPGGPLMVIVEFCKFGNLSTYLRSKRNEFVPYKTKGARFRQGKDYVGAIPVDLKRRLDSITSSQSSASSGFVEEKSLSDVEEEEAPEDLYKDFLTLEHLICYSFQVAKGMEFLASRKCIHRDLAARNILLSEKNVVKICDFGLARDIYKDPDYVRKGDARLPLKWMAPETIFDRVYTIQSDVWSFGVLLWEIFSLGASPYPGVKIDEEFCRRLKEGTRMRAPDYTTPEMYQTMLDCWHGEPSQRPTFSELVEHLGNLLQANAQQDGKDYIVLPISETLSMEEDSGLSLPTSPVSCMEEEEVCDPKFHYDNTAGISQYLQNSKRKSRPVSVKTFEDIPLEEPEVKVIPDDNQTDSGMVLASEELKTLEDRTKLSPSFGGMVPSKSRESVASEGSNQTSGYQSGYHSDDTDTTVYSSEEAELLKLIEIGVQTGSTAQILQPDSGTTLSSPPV
Chain of CSK (P41240 whole entry): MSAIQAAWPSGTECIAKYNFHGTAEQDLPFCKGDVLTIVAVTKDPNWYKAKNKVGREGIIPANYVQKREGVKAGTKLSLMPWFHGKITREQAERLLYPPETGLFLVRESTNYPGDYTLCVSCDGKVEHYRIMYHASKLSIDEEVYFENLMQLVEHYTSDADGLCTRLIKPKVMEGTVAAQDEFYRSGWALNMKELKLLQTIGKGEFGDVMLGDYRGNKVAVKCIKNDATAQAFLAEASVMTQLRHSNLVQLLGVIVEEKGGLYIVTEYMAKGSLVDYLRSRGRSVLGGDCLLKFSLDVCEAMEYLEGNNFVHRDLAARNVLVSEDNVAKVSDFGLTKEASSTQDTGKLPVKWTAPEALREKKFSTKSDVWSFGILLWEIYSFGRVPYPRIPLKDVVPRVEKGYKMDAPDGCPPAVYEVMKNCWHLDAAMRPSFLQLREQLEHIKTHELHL
Chain of TRKC (Q16288 32-839): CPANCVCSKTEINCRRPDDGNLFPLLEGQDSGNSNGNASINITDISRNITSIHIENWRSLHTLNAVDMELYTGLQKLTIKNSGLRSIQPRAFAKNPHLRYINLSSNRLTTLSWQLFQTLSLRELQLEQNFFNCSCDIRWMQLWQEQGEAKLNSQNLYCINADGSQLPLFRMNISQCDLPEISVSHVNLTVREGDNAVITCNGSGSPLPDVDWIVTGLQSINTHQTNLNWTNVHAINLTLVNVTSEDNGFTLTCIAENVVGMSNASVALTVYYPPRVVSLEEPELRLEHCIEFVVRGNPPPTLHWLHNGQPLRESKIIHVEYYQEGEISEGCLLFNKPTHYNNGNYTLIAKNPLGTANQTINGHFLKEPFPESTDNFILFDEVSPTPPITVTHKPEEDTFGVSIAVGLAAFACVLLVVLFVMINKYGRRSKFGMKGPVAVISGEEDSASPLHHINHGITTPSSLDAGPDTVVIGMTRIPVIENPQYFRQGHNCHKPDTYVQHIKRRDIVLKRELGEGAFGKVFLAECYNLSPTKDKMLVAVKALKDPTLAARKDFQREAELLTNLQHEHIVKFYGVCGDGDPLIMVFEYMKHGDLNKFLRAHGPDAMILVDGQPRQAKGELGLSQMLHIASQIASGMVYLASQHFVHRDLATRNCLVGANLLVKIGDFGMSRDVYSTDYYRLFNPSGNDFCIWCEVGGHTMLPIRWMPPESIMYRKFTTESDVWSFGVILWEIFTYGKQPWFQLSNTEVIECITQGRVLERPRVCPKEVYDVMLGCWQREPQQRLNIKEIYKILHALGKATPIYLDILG

Take `COc1cc(-c2cc(-c3ccc(N4CCNCC4)cc3)cnc2N)cc(OC)c1OC` [Compound 15, 5-(4-(piperazin-1-yl)phenyl)-3-(3,4,5-trimethoxyphenyl)pyridin-2-amine]: the inhibition at 0.1 µM came out at 30% on MER; 10% on CSK; 6% on KDR; 1% at TIE2; 3% on TRKC; 9% on NEK7. Further, the inhibition at 0.1 µM at NEK1 was determined as 1%. For the same compound, the inhibition at 1 µM on MER is 76%; at CSK it was 36%; at KDR, 22%; at TIE2, 6%; at TRKC, 3%; on NEK7, 2%. Besides, the inhibition at 1 µM on NEK1 turned out to be 1%.
In the case of `COc1cc(-c2cc(-c3ccc(N4CCNCC4)cc3)cnc2C)cc(OC)c1OC` [Compound 10, 1-(4-(6-methyl-5-(3,4,5-trimethoxyphenyl)pyridin-3-yl)phenyl)piperazine], the inhibition at 0.1 µM on MER was determined as 8%; at CSK, 4%; on KDR it was 0%; on TIE2, 1%; at TRKC it was 4%; at NEK7 it was 4%. Further, on NEK1, the inhibition at 0.1 µM came to 2%. In addition, the inhibition at 1 µM on MER turned out to be 36%; on CSK, 5%; on KDR, 3%; at TIE2, 0%; on TRKC, 4%; at NEK7, 3%. For the same compound, the inhibition at 1 µM at NEK1 was determined as 1%.

The values above are taken from patent US20170190705A1, “Compositions and Methods for Inhibiting BMP” (THE BRIGHAM AND WOMAN'S HOSPITAL, INC., priority 2014, published 2017).
